# Laboratory results as given in patent publication US20030104507A1, “Method for detection of ATP” (priority 2001, published 2003).
# Tested on: ATPase activity endogenous to L929 cell lysate
# Experiment: Detergent inhibition of ATPase endogenous to L929 cell lysate (ATP remaining by luciferase luminescence, 22° C.)
# Type: biochemical
# Design: key to Relative ATPase Activity, slope det/slope lysate: slope with detergent / slope without; ≥1.0 = 100% activity, 0.5 = 50%
# How it was run: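 L929 lysate (1.5×10^5 cells/ml, four freeze–thaw cycles) held with detergent at final 1.0, 0.5, 0.1 or 0.05% at 22° C; remaining ATP read over time with luciferase-luciferin reagent (100 μM luciferin, 10 mM MgSO4, pH 7.5). Relative ATPase activity = slope of log % ATP remaining vs time with detergent ÷ slope for lysate-only control.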
# [1] = Example 2, 0.02% detergent, 5 min
# [2] = Example 2, 0.02% detergent, 75 min
# [3] = Example 2, 0.02% detergent, 169 min
# [4] = Example 2, 0.02% detergent, 222 min
# [5] = Example 2, 0.02% detergent, 260 min
compound,measurement,setting,value
"CCCCCCCCCCCC[N+](C)(C)CCCS(=O)(=O)[O-] [Sulfobetaine 3-10, N-Dodecyl-N,N-dimethyl-3-ammonio-1-propanesulfonate]","Relative ATPase Activity, slope det/slope lysate",0.02 percent detergent,1.009
same,Slope (log percent ATP remaining vs time in minutes),0.02 percent detergent,−0.0064
same,Average Relative Light Unit Values,"0.05% detergent, 5 min",6247.31 rlu
same,Percent ATP Remaining,"0.05% detergent, 5 min",100%
same,Average Relative Light Unit Values,"0.05% detergent, 75 min",2270.13 rlu
same,Percent ATP Remaining,"0.05% detergent, 75 min",36.3%
same,Average Relative Light Unit Values,"0.05% detergent, 169 min",1053.56 rlu
same,Percent ATP Remaining,"0.05% detergent, 169 min",16.9%
same,Average Relative Light Unit Values,"0.05% detergent, 222 min",465.03 rlu
same,Percent ATP Remaining,"0.05% detergent, 222 min",7.4%
same,Average Relative Light Unit Values,"0.05% detergent, 260 min",233.19 rlu
same,Percent ATP Remaining,"0.05% detergent, 260 min",3.7%
same,"Relative ATPase Activity, slope det/slope lysate",0.05 percent detergent,1.077
same,Slope (log percent ATP remaining vs time in minutes),0.05 percent detergent,−0.0057
same,Average Relative Light Unit Values,"0.1% detergent, 5 min",6506.61 rlu
same,Percent ATP Remaining,"0.1% detergent, 5 min",100%
same,Average Relative Light Unit Values,"0.1% detergent, 75 min",2367.27 rlu
same,Percent ATP Remaining,"0.1% detergent, 75 min",36.4%
same,Average Relative Light Unit Values,"0.1% detergent, 169 min",1100.37 rlu
same,Percent ATP Remaining,"0.1% detergent, 169 min",16.9%
same,Average Relative Light Unit Values,"0.1% detergent, 222 min",446.29 rlu
same,Percent ATP Remaining,"0.1% detergent, 222 min",6.9%
same,Average Relative Light Unit Values,"0.1% detergent, 260 min",222.22 rlu
same,Percent ATP Remaining,"0.1% detergent, 260 min",3.4%
same,"Relative ATPase Activity, slope det/slope lysate",0.10 percent detergent,1.109
same,Slope (log percent ATP remaining vs time in minutes),0.10 percent detergent,−0.0058
same,Average Relative Light Unit Values,"0.5% detergent, 5 min",6565.98 rlu
same,Percent ATP Remaining,"0.5% detergent, 5 min",100%
same,Average Relative Light Unit Values,"0.5% detergent, 75 min",2405.95 rlu
same,Percent ATP Remaining,"0.5% detergent, 75 min",36.6%
same,Average Relative Light Unit Values,"0.5% detergent, 169 min",1211.13 rlu
same,Percent ATP Remaining,"0.5% detergent, 169 min",18.4%
same,Average Relative Light Unit Values,"0.5% detergent, 222 min",609.75 rlu
same,Percent ATP Remaining,"0.5% detergent, 222 min",9.3%
same,Average Relative Light Unit Values,"0.5% detergent, 260 min",391.64 rlu
same,Percent ATP Remaining,"0.5% detergent, 260 min",6.0%
same,"Relative ATPase Activity, slope det/slope lysate",0.50 percent detergent,0.921
same,Slope (log percent ATP remaining vs time in minutes),0.50 percent detergent,−0.0049
same,Average Relative Light Unit Values,"1.0% detergent, 5 min",7861.36 rlu
same,Percent ATP Remaining,"1.0% detergent, 5 min",100%
same,Average Relative Light Unit Values,"1.0% detergent, 75 min",5703.51 rlu
same,Percent ATP Remaining,"1.0% detergent, 75 min",72.6%
same,Average Relative Light Unit Values,"1.0% detergent, 169 min",4318.46 rlu
same,Percent ATP Remaining,"1.0% detergent, 169 min",54.9%
same,Average Relative Light Unit Values,"1.0% detergent, 222 min",3075.12 rlu
same,Percent ATP Remaining,"1.0% detergent, 222 min",39.1%
same,Average Relative Light Unit Values,"1.0% detergent, 260 min",2193.02 rlu
same,Percent ATP Remaining,"1.0% detergent, 260 min",27.9%
same,"Relative ATPase Activity, slope det/slope lysate",1.00 percent detergent,0.417
same,Slope (log percent ATP remaining vs time in minutes),1.00 percent detergent,−0.0022
same,Average Relative Light Unit Values,[1],6120.5 rlu
same,Percent ATP Remaining,[1],100.00%
same,Average Relative Light Unit Values,[2],1622.61 rlu
same,Percent ATP Remaining,[2],26.51%
same,Average Relative Light Unit Values,[3],291.09 rlu
same,Percent ATP Remaining,[3],4.76%
same,Average Relative Light Unit Values,[4],245.55 rlu
same,Percent ATP Remaining,[4],4.01%
same,Average Relative Light Unit Values,[5],136.43 rlu
same,Percent ATP Remaining,[5],2.23%
same,concentrations which resulted in a 25% or greater decrease in the relative ATPase activity,compared to reactions in the absence of detergent,≥ 1%
